Reference: patent US5140025A, “Thienotricylene for the treatment of bronchial diseases” (BYK Gulden Lomberg Chemische Fabrik GmbH, priority 1987, dated 1992)
Where two headings read alike, the source gives them in different places.

What was measured:
[1] = test system: acetylcholine-induced changes in lung function parameters; experiment: Acetylcholine-induced changes in lung function parameters in anaesthetised guinea pigs, intratracheal administration (whole-body plethysmography); assay type: in vivo, guinea pig (Pirbright White); details: for Bronchospasmolytic activity, percentage increase of compliance vs control / Bronchospasmolytic activity, percentage increase of conductance vs control: x±SEM, N=10; for ED50: Cavia porcellus
Source text: Effect of Intratracheally (i.t.) Administered (±)-Telenzepine on Acetylcholine-Induced Changes in Lung Function Parameters in Anaesthetised Guinea Pigs
Small-anmimal whole-body plethysmography in anaesthetised guinea pigs (method according to U. Heinreich and A. Wilhelm, in bga-Schriften 5/84, pp 255-266, MMW-Verlag, 1984).
Pirbright White, Interfauna (Tuttlingen). 290-350 g, male.
Ethylurethane 1.2 g/kg i.p. as 12.5% aqueous solution.
Plethysmographic measurement of maximum flow velocities of the respiratory air and tidal volume using tracheal catheter inserted through the natural passages; and measurement of intrapleural pressure using oesophageal catheter inserted through the natural passages.
0.001, 0.01, 0.1 and 1 μmol/kg (±)-telenzepine i.t., dissolved in 0.1 ml/kg 0.9% NaCl+0.1% Tween 80, acetylcholine as spasmogen administered by inhalation of ultrasonically nebulized 0.18% acetylcholine/0.9% NaCl solution.
-10 min control spasm, 0 min administration of substance, +5 and +30 min test spasms.
Computation of conductance (=capacity of airways to conduct air, equivalent to reciprocal of airway resistance) and of compliance (=distensibility of lung) from the recorded data, according to the method of Amdur and Mead (Amer. J. Physiol., 192, 364-368, 1958), before and at peak spasm, and determination of differences; calculation of percentage inhibition of the spasm after administration of the substance, in comparison with the control spasm; calculation of the dose/response curve and ED50 values of this bronchospasmolytic activity.

M2 receptor (cardiac) = target: T1, M2 receptor (cardiac) (Rattus norvegicus, UniProt P10980); experiment: Receptor affinity, electrically stimulated left atrium of the rat; details: agonist carbachol, Schild slope normalised to 1.00, read-out: pA2 ± SEM, M2 receptor (cardiac) (converted)
T1 construct: isolated, left atria of rats (male 250-350 g); from tissue; host or cells: rat left atrium (isolated, male rats 250-350 g)
T1 sequence (P10980 1-466): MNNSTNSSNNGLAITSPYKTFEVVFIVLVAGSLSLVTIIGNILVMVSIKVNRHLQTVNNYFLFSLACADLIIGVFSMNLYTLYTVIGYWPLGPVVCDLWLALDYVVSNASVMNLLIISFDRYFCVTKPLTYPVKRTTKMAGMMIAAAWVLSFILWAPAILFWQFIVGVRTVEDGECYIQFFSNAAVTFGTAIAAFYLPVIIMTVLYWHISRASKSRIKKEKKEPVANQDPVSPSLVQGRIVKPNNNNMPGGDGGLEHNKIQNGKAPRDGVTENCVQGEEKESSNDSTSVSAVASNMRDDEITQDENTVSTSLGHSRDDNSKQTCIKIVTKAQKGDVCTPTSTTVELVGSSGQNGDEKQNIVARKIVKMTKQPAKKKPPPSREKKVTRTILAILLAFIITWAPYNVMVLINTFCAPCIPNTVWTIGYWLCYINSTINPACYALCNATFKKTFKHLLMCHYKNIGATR
Source text: The affinity of (±)-4,9-dihydro-3-methyl-4-[(4-methyl-1-piperazinyl)-acetyl]-10H-thieno[3,4-b][1,5]benzodiazepin-10-one (telenzepine, compound 2 in Table 7) and its conformers [(+)-enantiomer=compound 1, (-)-enantiomer=compound 3] to muscarinic M1 (ganglionic type) and M2 (cardiac type) receptors was investigated by the following methods:
Electrically Stimulated Left Atrium of the Rat (Eltze et al., 1985, Europ. J. Pharmacol. 112, 211-224).
Isometric contractions (HSE force transducer, K-30; Watanabe Linear Corder Mark 5) of isolated, left atria of rats (male 250-350 g) were recorded in an organ bath (10 ml, Tyrode nutrient solution, 31° C., gassing with carbogen, initial tension of the organs 0.25 g) under electrical stimulation (HSE stimulator; hook-shaped Pt electrodes at the base of the bath and immersed, annular Pt electrodes 1 cm below the water surface of the bath; 7 V, 3 ms, 2 Hz). After an equilibration time of 30 minutes, cumulative dose/response curves of carbachol (10^-8 -10^-6 M, in the presence of the antagonist also up to 10^-5 or 10^-4 M) were recorded simultaneously on 4 organs in each case by the technique described by van Rossum (1963). The substance to be tested was added to the organ baths 20 minutes before application of the carbachol. The pauses between the individual dose/response curves were 30-45 minutes.
The Tyrode nutrient solution used had the following composition (mM): NaCl 130, KCl 2.0, CaCl2 ·2H2 O 1.8, MgCl2 ·6H2 O 0.98, NaHCO3 12.0, NaH2 PO4 0.42 and glucose monohydrate 5.6. pA2 values (-log of the molar dissociation constants of the competitive antagonist-receptor complex) were determined by linear regression using the Schild plot: pA2 =-log [B/(x-1)], (Arunlakshana and Schild, 1959).
Table 7 below gives pA2 values of the substances, for which the slope of the regression lines for theoretically competitive antagonism have been normalised to 1.00 (Tallarida et al., 1979).

Cc1scc2c1N(C(=O)CN1CCN(C)CC1)c1ccccc1NC2=O (racemic) [(±)-telenzepine, 4,9-dihydro-3-methyl-4-[(4-methyl-1-piperazinyl)-acetyl]-10H-thieno[3,4-b][1,5]benzodiazepin-10-one]
Bronchospasmolytic activity, percentage increase of compliance vs control ([1]; 5 min, 0.001 μmol/kg i.t.): 5 ± 1% | Bronchospasmolytic activity, percentage increase of conductance vs control ([1]; 5 min, 0.001 μmol/kg i.t.): 12 ± 3% | Bronchospasmolytic activity, percentage increase of compliance vs control ([1]; 5 min, 0.01 μmol/kg i.t.): 50 ± 9% | Bronchospasmolytic activity, percentage increase of conductance vs control ([1]; 5 min, 0.01 μmol/kg i.t.): 62 ± 10% | Bronchospasmolytic activity, percentage increase of compliance vs control ([1]; 5 min, 0.1 μmol/kg i.t.): 34 ± 10% | Bronchospasmolytic activity, percentage increase of conductance vs control ([1]; 5 min, 0.1 μmol/kg i.t.): 46 ± 10% | Bronchospasmolytic activity, percentage increase of compliance vs control ([1]; 5 min, 1 μmol/kg i.t.): 57 ± 9% | Bronchospasmolytic activity, percentage increase of conductance vs control ([1]; 5 min, 1 μmol/kg i.t.): 65 ± 9% | Bronchospasmolytic activity, percentage increase of compliance vs control ([1]; 30 min, 0.001 μmol/kg i.t.): 13 ± 3% | Bronchospasmolytic activity, percentage increase of conductance vs control ([1]; 30 min, 0.001 μmol/kg i.t.): 20 ± 5% | Bronchospasmolytic activity, percentage increase of compliance vs control ([1]; 30 min, 0.01 μmol/kg i.t.): 49 ± 9% | Bronchospasmolytic activity, percentage increase of conductance vs control ([1]; 30 min, 0.01 μmol/kg i.t.): 51 ± 9% | Bronchospasmolytic activity, percentage increase of compliance vs control ([1]; 30 min, 0.1 μmol/kg i.t.): 51 ± 9% | Bronchospasmolytic activity, percentage increase of conductance vs control ([1]; 30 min, 0.1 μmol/kg i.t.): 54 ± 7% | Bronchospasmolytic activity, percentage increase of compliance vs control ([1]; 30 min, 1 μmol/kg i.t.): 89 ± 4% | Bronchospasmolytic activity, percentage increase of conductance vs control ([1]; 30 min, 1 μmol/kg i.t.): 84 ± 2% | ED50 ([1]; 5 min, 5 min p.a., read-out: ED50 of bronchospasmolytic activity, compliance): 0.3 µmol/kg | ED50 ([1]; 5 min, 5 min p.a., read-out: ED50 of bronchospasmolytic activity, conductance): 0.05 µmol/kg | ED50 ([1]; 0.5 h, 30 min p.a., read-out: ED50 of bronchospasmolytic activity, compliance): 0.03 µmol/kg | ED50 ([1]; 0.5 h, 30 min p.a., read-out: ED50 of bronchospasmolytic activity, conductance): 0.03 µmol/kg | dose range of time- and dose-dependent inhibition of acetylcholine-induced reduction of conductance and compliance ([1]; i.t.): 0.001-1 μmol/kg i.t. | efficacy at 30 min compared with 5 min after administration ([1]; i.t.): more pronounced at 30 min than at 5 min | Kb (M2 receptor (cardiac)): 0.0479 µM
